{
  "source": "ChEMBL document CHEMBL1201862",
  "about": "“PubChem BioAssay data set” (2004)",
  "key": {"[1]": {"target": "Serine/threonine-protein phosphatase (Homo sapiens, UniProt Q9BPW0)", "sequence (Q9BPW0 whole entry)": "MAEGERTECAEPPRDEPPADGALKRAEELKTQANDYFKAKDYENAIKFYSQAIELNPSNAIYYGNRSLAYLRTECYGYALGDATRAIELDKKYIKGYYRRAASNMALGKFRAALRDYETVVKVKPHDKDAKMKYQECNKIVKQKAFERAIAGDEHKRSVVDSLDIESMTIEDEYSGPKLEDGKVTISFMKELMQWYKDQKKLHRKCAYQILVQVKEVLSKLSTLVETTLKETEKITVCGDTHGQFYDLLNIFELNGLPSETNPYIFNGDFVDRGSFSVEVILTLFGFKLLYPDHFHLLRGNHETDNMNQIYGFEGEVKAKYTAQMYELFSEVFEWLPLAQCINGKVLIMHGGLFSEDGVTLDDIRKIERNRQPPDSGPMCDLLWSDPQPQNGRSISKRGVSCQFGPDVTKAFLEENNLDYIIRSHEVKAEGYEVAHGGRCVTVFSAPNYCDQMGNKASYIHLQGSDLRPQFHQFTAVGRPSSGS", "test": "inhibition of protein phosphatase 5 activity – biochemical, fluorescence, dose response (AID 2395)"}, "[2]": {"target": "Serine/threonine-protein phosphatase PP1-alpha catalytic subunit (Homo sapiens, UniProt P62136)", "test": "inhibition of protein phosphatase 1 activity – biochemical, fluorescence, dose response (AID 2394)"}, "[3]": {"test": "NIH-3T3 fibroblast cytotoxicity, dose response, cytotoxicity control, cell-based, fluorescence, Alamar Blue, secondary assay (AID 2327);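 also: NIH-3T3 mouse fibroblasts cultured with fluconazole at 8 µg/mL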", "format": "functional"}, "HeLa": {"system": "HeLa", "test": "viability loss in HeLa cells – cell-based, 24 h, cherry-picked samples, cytotoxicity control, dose response (AID 504726);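 also: potency for cytotoxicity as loss of luminescence signal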", "format": "functional", "settings": "Homo sapiens"}, "Nonstructural protein 1": {"target": "Nonstructural protein 1 (Influenza A virus, UniProt Q194T2)", "format": "functional, Influenza A virus (A/California/07/2009(H1N1))"}, "[4]": {"test": "PKA-R1A complex activators, counter-screen titration – biochemical, Cy5-IP20 fluorescence polarization, 1536-well, triplicate, counter-screen for PKA-R2B activator project, dose response (AID 504896)"}, "ORF 73": {"target": "T1, ORF 73 (Human herpesvirus 8, UniProt O40947)", "T1 sequence (O40947 whole entry)": "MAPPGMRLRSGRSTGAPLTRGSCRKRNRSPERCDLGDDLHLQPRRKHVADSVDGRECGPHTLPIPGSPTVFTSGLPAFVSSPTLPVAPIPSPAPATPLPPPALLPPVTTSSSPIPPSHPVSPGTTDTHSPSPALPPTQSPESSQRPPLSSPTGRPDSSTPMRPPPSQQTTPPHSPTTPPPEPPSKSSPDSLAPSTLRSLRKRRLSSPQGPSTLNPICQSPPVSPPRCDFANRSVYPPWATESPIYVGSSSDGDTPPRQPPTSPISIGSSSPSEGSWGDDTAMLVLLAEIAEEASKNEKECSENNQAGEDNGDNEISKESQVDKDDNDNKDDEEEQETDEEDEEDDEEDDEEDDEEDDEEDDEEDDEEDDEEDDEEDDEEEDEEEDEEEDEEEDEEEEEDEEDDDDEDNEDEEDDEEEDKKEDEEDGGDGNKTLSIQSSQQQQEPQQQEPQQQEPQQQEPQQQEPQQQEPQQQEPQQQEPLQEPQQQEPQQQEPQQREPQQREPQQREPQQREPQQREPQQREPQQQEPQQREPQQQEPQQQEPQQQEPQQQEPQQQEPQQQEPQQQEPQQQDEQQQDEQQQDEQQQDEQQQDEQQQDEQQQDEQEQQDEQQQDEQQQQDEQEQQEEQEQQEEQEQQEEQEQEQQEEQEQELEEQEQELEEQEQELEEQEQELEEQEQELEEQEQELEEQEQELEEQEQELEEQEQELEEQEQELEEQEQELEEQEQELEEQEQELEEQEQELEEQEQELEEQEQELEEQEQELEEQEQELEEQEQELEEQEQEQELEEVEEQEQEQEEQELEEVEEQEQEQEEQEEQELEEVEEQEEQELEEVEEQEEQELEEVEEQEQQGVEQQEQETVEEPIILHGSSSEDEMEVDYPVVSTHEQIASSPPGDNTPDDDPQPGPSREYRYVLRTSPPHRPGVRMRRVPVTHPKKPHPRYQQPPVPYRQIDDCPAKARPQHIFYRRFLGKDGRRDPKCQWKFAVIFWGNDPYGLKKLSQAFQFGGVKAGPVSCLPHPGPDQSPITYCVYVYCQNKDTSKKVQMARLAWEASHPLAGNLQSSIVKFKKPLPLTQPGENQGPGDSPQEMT", "test": "KSHV LANA DNA-binding disruption – biochemical, fluorescence polarization, cherry-picked samples, dose response (AID 504725);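 also: fluorescence polarization of a labeled DNA duplex reporting LANA DNA binding; potency is for inhibitors that block LANA binding to the DNA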", "design": "species or system Human gammaherpesvirus 8"}, "Beta-galactosidase": {"target": "Beta-galactosidase (Escherichia coli, UniProt Q8VNN2)", "test": "detection-enzyme interference by beta-gal modulators – biochemical, E. coli enzyme, set 3, artefact control for CCR6 antagonist project, dose response (AID 504712)", "format": "functional"}, "[5]": {"target": "Insulin-like growth factor 1 receptor (Homo sapiens, UniProt P08069)", "test": "Navigating the Kinome. Panel member name: IGF1R", "format": "functional"}, "[6]": {"target": "Mitogen-activated protein kinase kinase kinase kinase 4 (Homo sapiens, UniProt O95819)", "sequence (O95819 whole entry)": "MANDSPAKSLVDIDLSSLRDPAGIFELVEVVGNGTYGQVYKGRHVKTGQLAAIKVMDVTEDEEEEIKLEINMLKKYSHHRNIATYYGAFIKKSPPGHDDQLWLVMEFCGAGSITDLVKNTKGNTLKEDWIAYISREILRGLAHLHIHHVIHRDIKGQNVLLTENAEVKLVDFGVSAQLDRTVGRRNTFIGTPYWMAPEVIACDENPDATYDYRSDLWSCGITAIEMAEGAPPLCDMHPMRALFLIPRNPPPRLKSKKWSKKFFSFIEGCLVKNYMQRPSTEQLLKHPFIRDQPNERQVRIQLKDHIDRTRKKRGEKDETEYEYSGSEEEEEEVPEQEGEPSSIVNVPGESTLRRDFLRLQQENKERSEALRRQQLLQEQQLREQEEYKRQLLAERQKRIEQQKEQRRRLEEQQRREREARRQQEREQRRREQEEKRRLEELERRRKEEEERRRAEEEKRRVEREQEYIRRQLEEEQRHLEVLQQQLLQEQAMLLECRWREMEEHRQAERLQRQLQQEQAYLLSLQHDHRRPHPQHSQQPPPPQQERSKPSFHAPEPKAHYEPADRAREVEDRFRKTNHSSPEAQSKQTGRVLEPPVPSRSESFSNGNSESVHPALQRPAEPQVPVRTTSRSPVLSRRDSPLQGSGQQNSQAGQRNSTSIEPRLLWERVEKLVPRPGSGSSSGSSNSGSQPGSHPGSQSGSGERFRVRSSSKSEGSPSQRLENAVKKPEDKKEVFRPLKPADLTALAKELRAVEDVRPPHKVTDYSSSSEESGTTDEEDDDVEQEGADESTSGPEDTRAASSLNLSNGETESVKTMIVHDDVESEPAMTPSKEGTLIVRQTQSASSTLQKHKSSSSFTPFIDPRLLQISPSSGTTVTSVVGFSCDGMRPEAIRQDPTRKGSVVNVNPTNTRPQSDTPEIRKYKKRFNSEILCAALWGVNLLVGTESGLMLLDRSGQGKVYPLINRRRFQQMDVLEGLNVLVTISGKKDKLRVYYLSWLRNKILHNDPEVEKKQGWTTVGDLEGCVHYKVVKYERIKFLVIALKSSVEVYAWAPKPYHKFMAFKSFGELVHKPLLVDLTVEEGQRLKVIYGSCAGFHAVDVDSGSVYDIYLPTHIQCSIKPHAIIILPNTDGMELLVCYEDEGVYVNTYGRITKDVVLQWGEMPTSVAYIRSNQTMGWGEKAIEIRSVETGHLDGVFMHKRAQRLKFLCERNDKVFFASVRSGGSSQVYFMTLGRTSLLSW", "format": "functional"}, "[7]": {"target": "Serine/threonine-protein kinase Chk1 (Homo sapiens, UniProt O14757)", "sequence (O14757 whole entry)": "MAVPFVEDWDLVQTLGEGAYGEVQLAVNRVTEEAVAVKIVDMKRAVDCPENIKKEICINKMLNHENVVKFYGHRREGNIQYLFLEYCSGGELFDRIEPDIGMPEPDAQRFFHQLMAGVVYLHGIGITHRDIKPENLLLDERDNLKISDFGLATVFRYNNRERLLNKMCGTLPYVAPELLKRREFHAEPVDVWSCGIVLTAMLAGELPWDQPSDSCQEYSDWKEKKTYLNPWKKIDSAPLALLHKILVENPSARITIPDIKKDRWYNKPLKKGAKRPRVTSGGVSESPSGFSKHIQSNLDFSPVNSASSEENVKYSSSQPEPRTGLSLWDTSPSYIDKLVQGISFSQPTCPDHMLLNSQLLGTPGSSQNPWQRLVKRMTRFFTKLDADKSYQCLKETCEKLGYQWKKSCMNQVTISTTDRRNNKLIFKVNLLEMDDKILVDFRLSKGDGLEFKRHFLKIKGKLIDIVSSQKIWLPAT", "format": "functional"}, "[8]": {"target": "Macrophage colony-stimulating factor 1 receptor (Homo sapiens, UniProt P07333)", "format": "functional"}, "Aurora kinase B": {"target": "Aurora kinase B (Homo sapiens, UniProt Q96GD4)", "format": "functional"}, "[9]": {"target": "Vascular endothelial growth factor receptor 1 (Homo sapiens, UniProt P17948)", "format": "functional"}, "[10]": {"target": "Protein kinase C theta type (Homo sapiens, UniProt Q04759)", "test": "Navigating the Kinome. Panel member name: PRKCQ", "format": "functional"}, "[11]": {"target": "Fibroblast growth factor receptor 1 (Homo sapiens, UniProt P11362)", "format": "functional"}, "[12]": {"target": "Dual specificity mitogen-activated protein kinase kinase 2 (Homo sapiens, UniProt P36507)", "sequence (P36507 whole entry)": "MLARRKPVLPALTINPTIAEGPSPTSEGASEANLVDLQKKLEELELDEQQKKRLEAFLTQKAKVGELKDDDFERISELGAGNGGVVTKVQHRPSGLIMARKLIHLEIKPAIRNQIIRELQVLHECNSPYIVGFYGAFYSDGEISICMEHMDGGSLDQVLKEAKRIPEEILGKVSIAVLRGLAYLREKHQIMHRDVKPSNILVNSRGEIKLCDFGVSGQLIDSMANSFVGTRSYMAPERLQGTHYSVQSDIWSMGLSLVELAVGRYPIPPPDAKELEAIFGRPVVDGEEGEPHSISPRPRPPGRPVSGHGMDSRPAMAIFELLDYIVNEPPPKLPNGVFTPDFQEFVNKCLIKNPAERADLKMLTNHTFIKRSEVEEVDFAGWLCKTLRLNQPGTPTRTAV", "test": "Navigating the Kinome. Panel member name: MAP2K2", "format": "functional"}, "[13]": {"target": "BDNF/NT-3 growth factors receptor (Homo sapiens, UniProt Q16620)", "format": "functional"}, "[14]": {"target": "Dual specificity tyrosine-phosphorylation-regulated kinase 1B (Homo sapiens, UniProt Q9Y463)", "test": "Navigating the Kinome. Panel member name: DYRK1B", "format": "functional"}, "[15]": {"target": "Receptor-type tyrosine-protein kinase FLT3 (Homo sapiens, UniProt P36888)", "sequence (P36888 whole entry)": "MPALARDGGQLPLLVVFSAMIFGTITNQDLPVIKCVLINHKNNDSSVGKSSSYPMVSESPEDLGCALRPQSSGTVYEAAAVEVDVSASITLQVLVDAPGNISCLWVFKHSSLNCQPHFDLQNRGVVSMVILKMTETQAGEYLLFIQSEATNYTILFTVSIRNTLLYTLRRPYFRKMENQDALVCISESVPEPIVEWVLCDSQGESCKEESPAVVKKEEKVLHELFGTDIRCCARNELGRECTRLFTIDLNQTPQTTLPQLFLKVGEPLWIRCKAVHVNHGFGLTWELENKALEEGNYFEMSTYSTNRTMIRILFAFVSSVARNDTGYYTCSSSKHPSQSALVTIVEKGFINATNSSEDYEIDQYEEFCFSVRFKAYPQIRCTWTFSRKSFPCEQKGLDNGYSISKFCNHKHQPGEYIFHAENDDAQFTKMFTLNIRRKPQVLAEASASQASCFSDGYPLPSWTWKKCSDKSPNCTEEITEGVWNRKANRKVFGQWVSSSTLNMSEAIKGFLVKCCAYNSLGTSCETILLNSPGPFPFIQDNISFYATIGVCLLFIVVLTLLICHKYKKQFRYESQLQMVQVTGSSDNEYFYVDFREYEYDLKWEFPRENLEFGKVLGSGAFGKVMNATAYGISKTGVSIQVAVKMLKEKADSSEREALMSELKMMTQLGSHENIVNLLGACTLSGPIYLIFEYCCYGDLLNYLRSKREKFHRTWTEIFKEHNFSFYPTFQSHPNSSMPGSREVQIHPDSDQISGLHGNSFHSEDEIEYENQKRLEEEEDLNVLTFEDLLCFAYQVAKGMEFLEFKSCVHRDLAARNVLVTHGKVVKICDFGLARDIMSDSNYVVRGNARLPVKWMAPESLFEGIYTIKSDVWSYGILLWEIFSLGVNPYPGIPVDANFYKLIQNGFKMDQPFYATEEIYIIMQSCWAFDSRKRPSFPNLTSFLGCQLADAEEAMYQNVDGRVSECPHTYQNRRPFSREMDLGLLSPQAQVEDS", "format": "functional"}, "[16]": {"target": "Vascular endothelial growth factor receptor 2 (Homo sapiens, UniProt P35968)", "format": "functional"}, "[17]": {"target": "High affinity nerve growth factor receptor (Homo sapiens, UniProt P04629)", "format": "functional"}, "[18]": {"target": "Mitogen-activated protein kinase 8 (Homo sapiens, UniProt P45983)", "sequence (P45983 whole entry)": "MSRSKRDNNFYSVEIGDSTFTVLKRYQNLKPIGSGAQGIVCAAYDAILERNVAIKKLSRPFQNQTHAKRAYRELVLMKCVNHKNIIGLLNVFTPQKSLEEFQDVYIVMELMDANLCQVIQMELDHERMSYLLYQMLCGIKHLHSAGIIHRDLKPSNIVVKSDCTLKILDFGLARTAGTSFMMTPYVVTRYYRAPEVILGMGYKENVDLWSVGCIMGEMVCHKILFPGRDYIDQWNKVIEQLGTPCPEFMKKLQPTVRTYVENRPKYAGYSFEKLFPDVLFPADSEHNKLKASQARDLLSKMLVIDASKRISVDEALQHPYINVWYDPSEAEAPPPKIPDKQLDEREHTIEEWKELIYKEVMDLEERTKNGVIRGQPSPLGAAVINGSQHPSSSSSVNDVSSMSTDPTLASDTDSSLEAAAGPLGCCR", "format": "functional"}, "Focal adhesion kinase 1": {"target": "Focal adhesion kinase 1 (Homo sapiens, UniProt Q05397)", "sequence (Q05397 whole entry)": "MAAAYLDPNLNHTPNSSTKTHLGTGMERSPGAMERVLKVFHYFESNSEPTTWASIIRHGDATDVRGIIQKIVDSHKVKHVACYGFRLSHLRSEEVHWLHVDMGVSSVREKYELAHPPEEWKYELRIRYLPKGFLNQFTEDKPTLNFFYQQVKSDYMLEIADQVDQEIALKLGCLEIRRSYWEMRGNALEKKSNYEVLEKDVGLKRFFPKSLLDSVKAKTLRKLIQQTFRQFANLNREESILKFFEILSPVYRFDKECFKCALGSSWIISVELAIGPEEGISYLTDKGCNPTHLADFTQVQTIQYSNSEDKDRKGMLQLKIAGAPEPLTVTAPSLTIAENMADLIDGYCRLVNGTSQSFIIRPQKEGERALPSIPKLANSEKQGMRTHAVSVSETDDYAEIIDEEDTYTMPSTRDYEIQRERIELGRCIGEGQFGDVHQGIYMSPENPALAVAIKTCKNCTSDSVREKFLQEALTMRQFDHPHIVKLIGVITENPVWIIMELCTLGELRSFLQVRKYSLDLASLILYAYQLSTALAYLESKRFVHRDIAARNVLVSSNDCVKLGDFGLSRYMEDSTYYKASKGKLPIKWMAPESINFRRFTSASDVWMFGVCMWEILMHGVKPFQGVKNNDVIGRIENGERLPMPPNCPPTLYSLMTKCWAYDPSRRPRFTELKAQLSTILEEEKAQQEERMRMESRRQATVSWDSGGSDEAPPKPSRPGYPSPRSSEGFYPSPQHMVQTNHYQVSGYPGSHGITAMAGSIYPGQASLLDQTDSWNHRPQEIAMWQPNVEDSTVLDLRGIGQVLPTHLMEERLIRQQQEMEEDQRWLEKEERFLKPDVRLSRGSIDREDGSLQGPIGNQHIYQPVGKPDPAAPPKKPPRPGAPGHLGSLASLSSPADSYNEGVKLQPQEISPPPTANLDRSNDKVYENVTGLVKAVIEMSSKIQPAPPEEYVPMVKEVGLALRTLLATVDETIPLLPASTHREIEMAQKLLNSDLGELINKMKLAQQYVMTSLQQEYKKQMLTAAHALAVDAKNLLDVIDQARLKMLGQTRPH", "format": "functional"}},
  "note": "Active and inactive are the calls of the source.",
  "data": [
    {"molecule": "O=C(NNc1cc(N2CCCC2)nc(N2CCCC2)n1)c1ccc([N+](=O)[O-])cc1", "values": [
      {"measurement": "IC50", "setting": "[1]", "result": "> 67 µM (not active)"},
      {"measurement": "IC50", "setting": "[2]", "result": "> 67 µM (not active)"}
    ]},
    {"molecule": "O=S(=O)(O)c1cccc2c(N=Nc3ccc(O)c4ncccc34)cccc12", "values": [
      {"measurement": "EC50", "setting": "[3]", "result": "> 160 µM (inactive)"},
      {"measurement": "AC50", "setting": "HeLa", "result": "206 µM (active)"},
      {"measurement": "IC50", "setting": "Nonstructural protein 1", "result": "4.68 µM (active)"},
      {"measurement": "EC50", "setting": "[4]", "result": "> 114 µM (inactive)"},
      {"measurement": "AC50", "setting": "ORF 73", "result": "64.1 µM (active)"},
      {"measurement": "IC50", "setting": "Beta-galactosidase", "result": "46.3 µM (inactive)"}
    ]},
    {"molecule": "O=C(Cc1cccs1)Nc1nc2ccccc2s1", "values": [
      {"measurement": "Ki", "setting": "[5]", "result": "> 2.51 µM (inactive)"},
      {"measurement": "Ki", "setting": "[6]", "result": "> 5.01 µM (inactive)"},
      {"measurement": "Ki", "setting": "[7]", "result": "0.316 µM (active)"},
      {"measurement": "Ki", "setting": "[8]", "result": "> 2.51 µM (inactive)"},
      {"measurement": "Ki", "setting": "Aurora kinase B", "result": "1 µM (active)"},
      {"measurement": "Ki", "setting": "[9]", "result": "3.16 µM (active)"},
      {"measurement": "Ki", "setting": "[10]", "result": "1.58 µM (active)"},
      {"measurement": "Ki", "setting": "[11]", "result": "0.631 µM (active)"},
      {"measurement": "Ki", "setting": "[12]", "result": "0.794 µM (active)"},
      {"measurement": "Ki", "setting": "[13]", "result": "> 3.98 µM (inactive)"},
      {"measurement": "Ki", "setting": "[14]", "result": "0.794 µM (active)"},
      {"measurement": "Ki", "setting": "[15]", "result": "> 3.16 µM (inactive)"},
      {"measurement": "Ki", "setting": "[16]", "result": "> 2.51 µM (inactive)"},
      {"measurement": "Ki", "setting": "[17]", "result": "0.316 µM (active)"},
      {"measurement": "Ki", "setting": "[18]", "result": "1 µM (active)"},
      {"measurement": "Ki", "setting": "Focal adhesion kinase 1", "result": "> 6.31 µM (inactive)"}
    ]}
  ]
}
